Experimental data from US7495027B2, “3-aryl-4-hydroxyfuranone compounds and the human and animal health use thereof” (Wyeth, priority 2003, dated 2009).

How the values were obtained:
[1] = tested on: larvae of blowfly, Lucilia sericata; test: whole plant or invertebrate; conditions: dose rate of 20 ppm, Lucilia sericata larvae on treated filter paper with bovine serum; for % Mortality 24 h: assessed at 24 h; for % Mortality 48 h: assessed at 48 h
Procedure: Comparative Evaluation of the Efficacy of a 3-Aryl-4-hydroxyfuranone Compound Against Blowfly Larvae
In this evaluation, filter paper discs are treated with an acetone solution of test compound and allowed to dry. Bovine serum and newly emerged larvae of blowfly, Lucilia sericata, are added to the treated filter paper. Mortality is assessed at 24 h and 48 h. When more than one evaluation is performed, the data are averaged.

[2] = tested on: C. elegans; test: Efficacy against nematodes (C. elegans motility rating); set-up: key: 0: no effect; 7: reduced movement in 24 h; 8: dead in 24 h; 9: dead in 4 h; conditions: observations at 4 h and 24 h postimmersion
Procedure: Evaluation of the Efficacy of a 3-Aryl-4-Hydroxyfuranone Against Nematodes
In this evaluation, cultures of C. elegans are maintained on E. coli lawns on Nematode Growth Agar at 20° C. New cultures are established twice a week. Nematodes for testing are rinsed from plates using M9 Buffer. […] One μL of this solution is added to each well of a 96 well plate. A mixture of C. elegans in M9 Buffer (100 μL) is added to each well, such that approximately 50 worms of mixed stages (L1, L2, L3, L4 and adults) are present in each well at a final concentration of 100 ppm, 150 ppm or […] of test compound. Concentration of test compound may be varied by gradient dilution of the stock DMSO solution. Observations are made under a dissecting microscope at 4 h and 24 h postimmersion. A rating is based on the motility of the larvae and adults, using the rating system shown below.

| Structure (SMILES) | % Mortality 24 h [1] [%] | % Mortality 48 h [1] [%] | Rating ([2]; dose 150 ppm) | further results |
| --- | --- | --- | --- | --- |
| O=C1OC(=Cc2ccc(-c3ccccc3CO)cc2)C(O)=C1c1ccccc1CO | 0 | 0 |  |  |
| O=C1O/C(=C\c2ccc(-c3cccc(CO)c3)cc2)C(O)=C1c1cccc(CO)c1 | 0 | 0 |  |  |
| CC(=O)Nc1cccc(C2=C(O)/C(=C/c3ccc(-c4cccc(NC(C)=O)c4)cc3)OC2=O)c1 | 0 | 0 |  |  |
| O=C1O/C(=C\c2ccc(N3CCN(c4ccccc4Cl)CC3)c(Cl)c2)C(O)=C1c1cc(Cl)cc(Cl)c1 | 0 | 0 |  |  |
| CCOC(=O)N1CCN(c2ccc(/C=C3\OC(=O)C(c4cc(Cl)cc(Cl)c4)=C3O)cc2F)CC1 | 0 | 0 |  |  |
| COc1cc(C=C2OC(=O)C(c3cc(Cl)cc(Cl)c3)=C2O)ccc1-c1cccc(C(F)(F)F)c1 | 0 | 0 |  |  |
| N#Cc1ccc(C2=C(O)/C(=C/c3ccc(-c4ccc(C#N)cc4)cc3)OC2=O)cc1 | 0 | 0 |  |  |
| CC(C)(C)c1ccc(-c2ccc(C3=C(O)C(=Cc4ccc(-c5ccccc5)cc4)OC3=O)cc2)cc1 | 0 | 0 |  |  |
| C=CCOC1=C(c2ccc(Cl)cc2)C(=O)OC1=Cc1ccc(C#N)cc1 (mixture of isomers) | 0 | 0 |  |  |
| N#Cc1ccc(-c2ccc(C=C3OC(=O)C(c4cccc(C(F)(F)F)c4)=C3O)cc2)cc1 (mixture of isomers) | 0 | 0 |  |  |
| O=C1OC(=Cc2ccc(-c3ccc(Cl)cc3)cc2)C(O)=C1c1cccc(C(F)(F)F)c1 (mixture of isomers) | 0 | 0 |  |  |
| N#Cc1cccc(C2=C(O)C(=Cc3ccc(-c4ccc(Cl)cc4)cc3)OC2=O)c1 (mixture of isomers) | 0 | 0 |  |  |
| N#Cc1ccc(-c2ccc(C=C3OC(=O)C(c4cccc(Cl)c4)=C3O)cc2)cc1 (mixture of isomers) | 0 | 0 |  |  |
| O=C1OC(=Cc2ccc(-c3ccc(Cl)cc3)cc2)C(O)=C1c1cccc(Cl)c1 (mixture of isomers) | 0 | 0 |  |  |
| N#Cc1ccc(-c2ccc(C=C3OC(=O)C(c4ccc(C(F)(F)F)cc4)=C3O)cc2)cc1 (mixture of isomers) | 0 | 0 |  |  |
| O=C1OC(=Cc2ccc(-c3ccc(Cl)cc3)cc2)C(O)=C1c1ccc(C(F)(F)F)cc1 (mixture of isomers) | 0 | 65 |  |  |
| N#Cc1ccc(C2=C(O)C(=Cc3ccc(-c4ccc(C(F)(F)F)cc4)cc3)OC2=O)cc1 (mixture of isomers) | 0 | 25 |  |  |
| N#Cc1ccc(C2=C(O)C(=Cc3ccc(-c4ccc(Cl)cc4)cc3)OC2=O)cc1 (mixture of isomers) | 0 | 100 |  |  |
| O=C1OC(=Cc2ccc(-c3ccc(C(F)(F)F)cc3)cc2)C(O)=C1c1ccc(Cl)cc1 (mixture of isomers) | 0 | 0 |  |  |
| N#Cc1ccc(-c2ccc(C=C3OC(=O)C(c4ccc(F)cc4)=C3O)cc2)cc1 (mixture of isomers) | 0 | 0 |  |  |
| O=C1OC(=Cc2ccc(-c3ccc(Cl)cc3)cc2)C(O)=C1c1ccc(F)cc1 (mixture of isomers) | 0 | 0 |  |  |
| O=C1OC(=Cc2ccc(C(F)(F)F)cc2)C(O)=C1c1ccc(-c2ccc(Cl)cc2)cc1 (mixture of isomers) | 0 | 0 |  |  |
| N#Cc1ccc(C=C2OC(=O)C(c3ccc(-c4ccc(Cl)cc4)cc3)=C2O)cc1 (mixture of isomers) | 0 | 0 |  |  |
| O=C1OC(=Cc2ccc(Cl)cc2)C(O)=C1c1ccc(-c2ccc(Cl)cc2)cc1 (mixture of isomers) | 0 | 0 |  |  |
| COC1=C(c2ccc(Cl)cc2)C(=O)OC1=Cc1ccc(C#N)cc1 (mixture of isomers) [R=CH3, R1=4-Cl—C6H4**, R2=4-CN—C6H4] | 0 | 0 |  |  |
| O=C1OC(=Cc2ccc(C(F)(F)F)cc2)C(O)=C1c1cccc(C(F)(F)F)c1 (mixture of isomers) [R=H, R1=3-CF3—C6H4**, R2=4-CF3—C6H4] | 100 | 100 |  |  |
| N#Cc1ccc(C=C2OC(=O)C(c3cccc(C(F)(F)F)c3)=C2O)cc1 (mixture of isomers) [R=H, R1=3-CF3—C6H4**, R2=4-CN—C6H4] | 20 | 20 |  |  |

| Structure (SMILES) | % Mortality 24 h [1] [%] | % Mortality 48 h [1] [%] | Rating ([2]; dose 150 ppm) | further results |
| --- | --- | --- | --- | --- |
| O=C1O/C(=C\c2cc(C(F)(F)F)ccc2F)C(O)=C1c1cccc(-c2ccccc2)c1 [R=H; R1=3-biphenyl; R2=2-F-5-CF3—C6H3] |  |  |  | Rating ([2]; dose 200 μM): 9 |
| O=C1O/C(=C\c2cccc(C(F)(F)F)c2)C(O)=C1c1cccc(-c2ccccc2)c1 [R=H; R1=3-biphenyl; R2=3-CF3—C6H4] |  |  | 0 |  |
| O=C1O/C(=C\c2cc(F)cc(C(F)(F)F)c2)C(O)=C1c1cccc(-c2ccccc2)c1 [R=H; R1=3-biphenyl; R2=3-F-5-CF3—C6H3] |  |  |  | Rating ([2]; dose 200 μM): 9 |
| CC(=NO)c1ccc(C2=C(O)C(=Cc3cccc4ccccc34)OC2=O)cc1 [R=H; R1=4-(CH3C═NOH)—C6H4; R2=1-naphthyl] |  |  | 7 |  |
| O=C1O/C(=C\c2cccc3ccccc23)C(O)=C1c1ccc(C(F)(F)F)cc1 [R=H; R1=4-CF3—C6H4; R2=1-naphthyl] |  |  | 9 |  |
| Cc1ccc(C2=C(O)/C(=C/c3cccc(C(F)(F)F)c3Cl)OC2=O)cc1 [R=H; R1=4-CH3—C6H4; R2=2-Cl-3-CF3—C6H3] |  |  |  | Rating ([2]; dose 200 μM): 9 |
| Cc1ccc(C2=C(O)/C(=C/c3cc(C(F)(F)F)ccc3Cl)OC2=O)cc1 [R=H; R1=4-CH3—C6H4; R2=2-Cl-5-CF3—C6H3] |  |  |  | Rating ([2]; dose 200 μM): 0 |
| N#Cc1ccc(/C=C2\OC(=O)C(c3ccc(C#N)cc3)=C2O)cc1 [R=H; R1=4-CN—C6H4**; R2=4-CN—C6H4] |  |  | 9 |  |
| N#Cc1ccc(C2=C(O)C(=Cc3ccc(Cl)cc3)OC2=O)cc1 [R=H; R1=4-CN—C6H4**; R2=4-Cl—C6H4] |  |  | 9 |  |
| N#Cc1ccc(C2=C(O)C(=Cc3ccc(-c4ccc(C#N)cc4)cc3)OC2=O)cc1 [R=H; R1=4-CN—C6H4; R2=4-(4′-CN-biphenyl)] |  |  | 8 |  |
| COC(=O)c1ccc(C2=C(O)/C(=C/c3cccc4ccccc34)OC2=O)cc1 [R=H; R1=4-CO2CH3—C6H4; R2=1-naphthyl] |  |  | 9 |  |
| CC(=O)c1ccc(C2=C(O)C(=Cc3ccccc3C(F)(F)F)OC2=O)cc1 [R=H; R1=4-COCH3—C6H4; R2=2-CF3—C6H4] |  |  | 0 |  |
| O=C1O/C(=C\c2ccccc2-c2ccc(Cl)cc2)C(O)=C1c1ccc(Cl)cc1 [R=H; R1=4-Cl—C6H4; R2=2-(4′-Cl-biphenyl)] |  |  | 0 |  |
| O=C1O/C(=C\c2cccc(C(F)(F)F)c2)C(O)=C1c1ccc(Cl)cc1 [R=H; R1=4-Cl—C6H4; R2=3-CF3—C6H4] |  |  | 9 |  |
| O=C1OC(=Cc2ccccc2C(F)(F)F)C(O)=C1c1ccc(F)cc1 [R=H; R1=4-F—C6H4; R2=2-CF3—C6H4] |  |  | 0 |  |
| COc1ccc(C2=C(O)/C(=C/c3ccc4ccccc4c3)OC2=O)cc1 [R=H; R1=4-OCH3—C6H4; R2=2-naphthyl] |  |  | 0 |  |
| COc1ccc(C2=C(O)/C(=C/c3ccc(Cl)cc3)OC2=O)cc1 [R=H; R1=4-OCH3—C6H4; R2=4-Cl—C6H4] |  |  | 0 |  |
| COc1ccc(/C=C2\OC(=O)C(c3ccc(OC)cc3)=C2O)cc1 [R=H; R1=4-OCH3—C6H4; R2=4-OCH3—C6H4] |  |  | 0 |  |
| O=C1OC(=Cc2cc(C(F)(F)F)ccc2Cl)C(O)=C1c1ccc(-c2ccccc2)cc1 [R=H; R1=4-biphenyl; R2=2-Cl-5-CF3—C6H3] |  |  |  | Rating ([2]; dose 200 μM): 9 |
| O=C1O/C(=C\c2ccc3ccccc3c2)C(O)=C1c1ccc(-c2ccccc2)cc1 [R=H; R1=4-biphenyl; R2=2-naphthyl] |  |  | 0 |  |
| O=C1OC(=Cc2cccc(C(F)(F)F)c2)C(O)=C1c1ccc(-c2ccccc2)cc1 [R=H; R1=4-biphenyl; R2=3-CF3—C6H4] |  |  |  | Rating ([2]; dose 200 μM): 9 |
| O=C1OC(=Cc2cc(F)cc(C(F)(F)F)c2)C(O)=C1c1ccc(-c2ccccc2)cc1 [R=H; R1=4-biphenyl; R2=3-F-5-CF3—C6H3] |  |  |  | Rating ([2]; dose 200 μM): 9 |
| O=C1O/C(=C\c2ccc(-c3ccccc3)cc2)C(O)=C1c1ccc(-c2ccccc2)cc1 [R=H; R1=4-biphenyl; R2=4-biphenyl] |  |  | 9 |  |
| O=C1O/C(=C\c2cccc(C(F)(F)F)c2)C(O)=C1c1ccccc1 [R=H; R1=C6H5; R2=3-CF3—C6H4] |  |  | 0 |  |
| O=C1OC(=Cc2ccc(C(F)(F)F)cc2)C(O)=C1c1cccs1 [R=H; R1=thiophen-2-yl; R2=4-CF3—C6H4] |  |  |  | Rating ([2]; dose 100 ppm): 7 |
| N#Cc1ccc(C=C2OC(=O)C(c3cccs3)=C2O)cc1 [R=H; R1=thiophen-2-yl; R2=4-CN—C6H4] |  |  |  | Rating ([2]; dose 100 ppm): 0 |
| O=C1O/C(=C\c2ccc(Cl)cc2)C(O)=C1c1cccs1 [R=H; R1=thiophen-2-yl; R2=4-Cl—C6H4] |  |  |  | Rating ([2]; dose 100 ppm): 7 |
